SMILES strings stand for the structures.

In the first assay the test system is Rattus norvegicus. Nature of the assay: Antinidatory effect was measured in the rat, relative to that of prostaglandin F2-alpha (ED50 = 1.3 (0.9-1.87) mg/kg); Range 2-4. It is filed as functional.
The molecule `O=C(O)/C=C\CCCC[C@@H]1[C@@H](/C=C/[C@@H](O)COc2cccc(C(F)(F)F)c2)[C@H](O)C[C@@H]1O` showed a Relative activity of 2.

In a further assay the test system is Rattus norvegicus. Nature of the assay: Antinidatory effect was measured in the rat, relative to that of prostaglandin F2alpha (ED50 = 1.3 (0.9-1.87) mg/kg); Range 200-400. It is filed as functional.
`COC(=O)CCC/C=C\C[C@@H]1[C@@H](/C=C/[C@@H](O)COc2ccccc2)[C@H](O)C[C@@H]1O` registered a Relative activity of 200.
Turning to `COC(=O)/C=C/C/C=C\C[C@@H]1[C@@H](/C=C/[C@@H](O)COc2ccccc2)[C@H](O)C[C@@H]1O`, the Relative activity came out at 200.
With `COC(=O)C/C=C/C=C\C[C@@H]1[C@@H](/C=C/[C@@H](O)COc2ccc(Cl)cc2)[C@H](O)C[C@@H]1O`, the Relative activity was determined as 200.

The subject of a further assay is Rattus norvegicus. Nature of the assay: Antinidatory effect was measured in the rat, relative to that of prostaglandin F2-alpha (ED50 = 1.3 (0.9-1.87) mg/kg); Range 4-8. It counts as functional.
`COC(=O)/C=C/C=C/CC[C@@H]1C(/C=C/[C@@H](O)COc2cccc(Cl)c2)[C@H](O)C[C@@H]1O` (some centres not stated) came in with a Relative activity of 4.

Another assay has as its system Rattus norvegicus. Nature of the assay: Antinidatory effect was measured in the rat, relative to that of prostaglandin F2-alpha (ED50 = 1.3 (0.9-1.87)mg/kg). It is filed as functional.
The molecule `COC(=O)C/C=C/C=C/C[C@@H]1[C@@H](/C=C/[C@@H](O)COc2cccc(Cl)c2)[C@H](O)C[C@@H]1O` returned a Relative activity of 100.
`COC(=O)CCC/C=C\C[C@@H]1[C@@H](/C=C/[C@@H](O)COc2cccc(Cl)c2)[C@H](O)C[C@@H]1O` yielded a Relative activity of 200.
On the same count and under the same terms, the figure for `COC(=O)/C=C/C/C=C\C[C@@H]1[C@@H](/C=C/[C@@H](O)COc2ccc(Cl)cc2)[C@H](O)C[C@@H]1O` is 100; for `COC(=O)CCC/C=C\C[C@@H]1[C@@H](/C=C/[C@@H](O)COc2cccc(C(F)(F)F)c2)[C@H](O)C[C@@H]1O` it is 100; for `COC(=O)/C=C/C/C=C\C[C@@H]1[C@@H](/C=C/[C@@H](O)COc2cccc(C(F)(F)F)c2)[C@H](O)C[C@@H]1O` it is 100.
In the case of `COC(=O)CC=C/C=C\C[C@@H]1[C@@H](/C=C/[C@@H](O)COc2ccccc2)[C@H](O)C[C@@H]1O`, the Relative activity is recorded as 1200.
On the same count and under the same terms, the figure for `COC(=O)C(CC/C=C\C[C@@H]1[C@@H](/C=C/[C@@H](O)COc2cccc(Cl)c2)[C@H](OC2CCCCO2)C[C@@H]1OC1CCCCO1)[Se]c1ccccc1` (some centres not stated) is 1; for `COC(=O)/C=C/C=C/CC[C@@H]1C(/C=C/[C@@H](O)COc2ccccc2)[C@H](O)C[C@@H]1O` (some centres not stated) it is 20; for `COC(=O)C/C=C/C=C\C[C@@H]1[C@@H](/C=C/[C@@H](O)COc2cccc(C(F)(F)F)c2)[C@H](O)C[C@@H]1O` it is 100.
On the same count and under the same terms, the figure for `COC(=O)C/C=C/C=C\C[C@@H]1[C@@H](/C=C/[C@@H](O)COc2cccc(Cl)c2)[C@H](O)C[C@@H]1O` is 800.
Still for that read-out and setting: then `COC(=O)C/C=C/C=C\C[C@@H]1[C@@H](/C=C/[C@@H](O)COc2ccccc2)[C@H](O)C[C@@H]1O`, with 800; and `COC(=O)C/C=C/C=C/C[C@@H]1[C@@H](/C=C/[C@@H](O)COc2ccccc2)[C@H](O)C[C@@H]1O`, with 200; and `COC(=O)C/C=C/CCC[C@@H]1[C@@H](/C=C/[C@@H](O)COc2ccccc2)[C@H](O)C[C@@H]1O`, with 40.
Turning to `COC(=O)/C=C/C/C=C/C[C@@H]1[C@@H](/C=C/[C@@H](O)COc2cccc(Cl)c2)[C@H](O)C[C@@H]1O`, the Relative activity was 100.
As to `O=C(O)/C=C/C/C=C\C[C@@H]1[C@@H](/C=C/[C@@H](O)COc2cccc(Cl)c2)[C@H](O)C[C@@H]1O`, the Relative activity was found to be 200.
Same read-out and setting: the figure for `COC(=O)CC=C/C=C\C[C@@H]1[C@@H](/C=C/[C@@H](O)COc2cccc(Cl)c2)[C@H](O)C[C@@H]1O` is 600; for `O=C(O)/C=C/CCCC[C@@H]1[C@@H](/C=C/[C@@H](O)COc2cccc(C(F)(F)F)c2)[C@H](O)C[C@@H]1O` it is 4.

The values are drawn from ChEMBL document CHEMBL1121435, “Prostaglandin analogues possessing antinidatory effects. 2. Modification of the alpha chain” (1980).
